Data from US9897613B2, “Mass spectrometric measurement of microbial resistances” (Bruker Daltonik GmbH, priority 2007, dated 2018).

Assays:
[1] = tested on: non-resistant type of E. coli; assay: Mass spectrometric (MALDI) protein profile after incubation with antibiotic in liquid nutrient medium, non-resistant strain; format: cell-based, Escherichia coli; conditions: ampicillin in a liquid nutrient medium allowed to act for two hours, FIG. 2 top
Procedure: (§1) The non-resistant type of E. coli (top) has been destroyed; all protein signals of the mass spectra from FIG. 1 have disappeared.
(§2) The illustrative method starts in step 300 and comprises the following steps: • (a) In step 302, a quantity of microbes under investigation is added to a nutrient medium which also contains a quantity of the antibiotic, • (b) Next, in step 304, the microbes are incubated at a predetermined temperature for a predetermined length of time, preferably not longer than a few hours, • (c) In step 306, the microbes are then removed from the nutrient medium by a suitable means, such as centrifuging, • (d) The microbes are then applied, in step 308, together with a matrix solution to a mass spectrometric sample support and the matrix solution is dried on the sample support to form a sample, • (e) In step 310, a mass spectrum of this sample is acquired, and • (f) Then, in step 312, the acquired mass spectrum is compared with reference mass spectra of these microbes. The process then finishes in step 314.
Infectious microbes are incubated for about two hours at temperatures of between 35° C. and 40° C. in the presence of the antibiotics. This temperature is the optimum one for most infectious microbes because they are generally adapted to a life in mammals. […]

[2] = tested on: E. coli with a resistance to ampicillin due to a plasmid pUC19; assay: Mass spectrometric (MALDI) protein profile after incubation with antibiotic in liquid nutrient medium, resistant strain; format: cell-based, Escherichia coli; conditions: ampicillin in a liquid nutrient medium allowed to act for two hours, FIG. 2 bottom
Procedure: The mass spectra contain predominantly protein signals of the same mass, with the usual lack of reproducibility of the intensities. They are identified as being identical by suitable computer programs.
as §1, §2
Infectious microbes are incubated for about two hours at temperatures of between 35° C. and 40° C. in the presence of the antibiotics. […]

SMILES: CC1(C)S[C@@H]2[C@H](NC(=O)[C@H](N)c3ccccc3)C(=O)N2[C@H]1C(=O)O [ampicillin]
- effect on microbes / protein signals of the mass spectrum [1]: destroyed
- effect on microbes / protein profile of the mass spectrum [2]: protein profile which is sufficiently similar to the two mass spectra in FIG. 1
